{"source": "patent US20080081781A1", "about": "“Methods and compositions for the treatment of metabolic syndrome” (priority 2004, published 2008)", "key": {"[1]": {"system": "PKC", "test": "Cellular PKC activity in HepG2 cells (PepTag assay)", "assay_type": "cell-based, human", "description": "To determine whether berberine directly activates PKC, pGL3-1.5kIRP transfected HepG2 cells were either not treated, treated with 0.2 μM of calphostin C, 5 μg/ml of berberine or 0.5 μM of PKC activator phorbol-12-myristate-13-acetate (PMA) (Gandino, Oncogene, 5(%), 721-725 (1990) or combinations thereof for eight hours. The activity of total PKC in the control and berberine treated cells was assessed by PKC activity assay.\nCellular PKC activity was analyzed using the PepTag® Assay for Non-Radioactive Detection of Protein Kinase-C or cAMP-Dependent Protein Kinase kit (Promega) according to the protocol. Briefly, after homogenization and partial purification, 10 μl of sample protein was mixed with 5 μl of PepTag® Cl peptide (specific substrate of PKC), 5 μl of reaction buffer and 5 μl of PKC activator solution in a 25 μl reaction system. The reactions were performed at 30° C. for 30 minutes. Then, the samples were loaded onto a 0.8% agarose gel. […] They were transferred to a 96-well plate and quantified using densitometry according to the supplier's protocol. The catalytic activity of total PKC of a specific sample was expressed as pmol/min/mg, representing the number of picomoles of phosphate transferred to the substrate per minute per milligram of proteins of the sample."}, "[2]": {"system": "patients with type 2 diabetes", "assay_type": "in vivo, human", "source_text": "Ninety-seven hyperglycemic patients (54 males and 43 females) with fasting blood glucose>7 mmol/L and post-prandial blood glucose>11.1 mmol/L were enrolled in a study at the Nanjing First Hospital in Nanjing, China. The patients were asked to end any current treatments for hyperglycemia at least 2 weeks prior to commencement of the study.\nFifty of the patients (male/female, 27/23; age 57±8y) were randomly assigned to be given 0.5 gram twice a day (1g/day total) of berberine (Nanjing Second Pharmaceutics, Inc., Nanjing, China), orally for 2 months. Out of these 50 patients, 25 had hyperlipidemia, 9 had hypertension and 2 had cardiovascular disease. Twenty-six patients (male/female, 15/11; age 56±11 y) were given 1.5 grams of metformin (Double-Crane Pharmaceutical, Inc., Beijing, China) per day, orally for two months. Of these twenty-six patients, 11 had hyperlipidemia, and four had hypertension. The remaining twenty-one patients (male/female, 11/10, age 49±10 y) were given 4 mg per day of rosiglitazone (Glaxowelcome, UK), orally for two months. Of these 21 patients, ten had hyperlipidemia and four had hypertension. Metformin and rosiglitazone served as reference controls as they are standard treatments for type 2 diabetes.\nBlood samples were taken prior to the commencement of therapy and after completion of the therapy."}, "[3]": {"system": "rats", "test": "Long term toxicity in rats", "assay_type": "in vivo, rat", "conditions": "300 mg/kg orally for 182 days", "description": "For long term toxicity determination, rats were administered 300 mg/kg of berberine orally for 182 days."}, "[4]": {"system": "patients with metabolic syndrome", "test": "Berberine in patients with metabolic syndrome (Table 10)", "assay_type": "in vivo, human", "conditions": "for Blood Pressure / Blood Cholesterol / Blood Insulin / Blood Triglyceride / FBG (fasting blood glucose): patients with metabolic syndrome (n = 28); for Blood Cholesterol / Blood Insulin / Blood Triglyceride / FBG (fasting blood glucose): means ± SEs", "source_text": "Twenty-eight patients 28 (male/female, 17/11; age, 57±8 y) were diagnosed as having metabolic syndrome if they met three or more of the following criteria: fasting blood glucose>7 mmol/L, serum triglyceride>1.7 mmol/L, fasting blood insulin>13 mmcU/mL, blood pressure>135/85 and/or BMI>23. (Eckel, Lancet 365 (9468), 1415-28 (2005); Executive Summary, JAMA 285, 2486-2497 (2001); Balkau, Diabet. Med. 16, 442-443 (1999)) The patients were enrolled in this study at the Nanjing First Hospital, Nanjing, China. The patients were requested to end previous medications or therapies for at least two weeks prior to the beginning of the study.\nThe patients were then given 1 gram of berberine per day, orally for two months. Blood samples were taken both before and after two months of berberine treatment. Fasting blood levels of glucose, LDL-c, cholesterol, HDL-c, triglyceride and blood insulin were measured using standard methods routinely applied in hospitals. Liver and kidney functions were also monitored in the patients."}, "[5]": {"system": "InsR gene promoter", "test": "InsR promoter activity, pGL3-1.5kIRP transfected HepG2 cells", "assay_type": "cell-based, human", "conditions": "pGL3-1.5kIRP transfected HepG2, 10 μg/ml, 8 h", "description": "The InsR promoter luciferase gene fusion plasmid (pGL3-1.5kIRP) was kindly provided by Dr. Araki E of the Graduate School of Medical Sciences, Kumamoto University, Honjo, Kumamoto, Japan.\nAfter overnight incubation, the cells were treated with DMSO as the solvent control or with 0, 1, 2.5, 5, 7.5 and 10 μg/ml berberine for 8 h. Cell lysates were prepared and luciferase activities were measured using the Luciferase Reporter Gene Assay (Roche Applied Science). The experiment was repeated 4 times."}, "[6]": {"conditions": "patients with type 2 diabetes, After treatment (2 months), oral: berberine 1 g/day, metformin 1.5 g/day, rosiglitazone 4 mg/day, Mean ± SE"}, "[7]": {"conditions": "patients with type 2 diabetes, Before treatment (baseline), Mean ± SE"}, "[8]": {"conditions": "type 2 diabetes patients, 1 g/day orally, 2 months"}, "[9]": {"conditions": "After BBR treatment 1 g/day, Bid, 2 months"}}, "note": "Read-outs that look alike come from different tables or passages of the source."}
{"smiles": "COc1ccc2cc3[n+](cc2c1OC)CCc1cc2c(cc1-3)OCO2", "note": "[berberine]", "values": [{"measurement": "time at which elevation of PKC activity was first observed", "setting": "[1]; after berberine treatment", "value": 0.5, "unit": "h"}, {"measurement": "PKC activity in liver cells", "setting": "[1]; time-dependent", "value": "increased"}, {"measurement": "serum insulin levels", "setting": "[2]; after treatment, normal range 2.5-13 mlU/L", "value": "decreased into the normal range"}, {"measurement": "ALT after treatment", "setting": "[2]; human, in vivo", "value": "23±16"}, {"measurement": "BUN after treatment", "setting": "[2]; human, in vivo", "value": "5.7±1.2"}, {"measurement": "Cr after treatment", "setting": "[2]; human, in vivo", "value": "71±14"}, {"measurement": "r-GT after treatment", "setting": "[2]; human, in vivo", "value": "31±23"}, {"measurement": "HbA1c", "setting": "[2]; [6]", "value": "6.8 ± 0.2", "unit": "%"}, {"measurement": "Triglyceride", "setting": "[2]; [6]", "value": "1.4 ± 0.1", "unit": "mmol/L"}, {"measurement": "FBG (fasting blood glucose)", "setting": "[2]; [7]", "value": "10.4 ± 0.4", "unit": "mmol/L"}, {"measurement": "HbA1c", "setting": "[2]; [7]", "value": "8.0 ± 0.3", "unit": "%"}, {"measurement": "Triglyceride", "setting": "[2]; [7]", "value": "1.7 ± 0.1", "unit": "mmol/L"}, {"measurement": "reduction of serum cholesterol", "setting": "[2]; type 2 diabetes patients of berberine group (50% also had hyperlipidemia)", "value": 24, "unit": "%"}, {"measurement": "lowering of fasting blood glucose", "setting": "[2]; [8]", "value": 26, "unit": "%"}, {"measurement": "lowering of hemoglobin A1c (HbA1c)", "setting": "[2]; [8]", "value": 18, "unit": "%"}, {"measurement": "lowering of triglycerides", "setting": "[2]; [8]", "value": 18, "unit": "%"}, {"measurement": "long term toxicity: blood tests, blood biochemistry, urine analysis, histopathology", "setting": "[3]", "value": "No abnormalities were found"}, {"measurement": "fasting blood glucose after treatment", "setting": "[4]; 1 gram per day orally, two months, Mean ±SE, before 10.7±0.56", "value": "8.0 ± 0.45", "unit": "mmol/L"}, {"measurement": "cholesterol after treatment", "setting": "[4]; 1 gram per day orally, two months, before 6.1±±0.11", "value": "4.7 ± 0.16", "unit": "mmol/L"}, {"measurement": "blood pressure after treatment", "setting": "[4]; 1 gram per day orally, two months, before 156/86", "value": "133/79"}, {"measurement": "Blood Pressure", "setting": "[4]; [9]", "value": "133/79"}, {"measurement": "Blood Cholesterol", "setting": "[4]; [9]", "value": "4.7 ± 0.16", "unit": "mmol/L"}, {"measurement": "Blood Insulin", "setting": "[4]; [9]", "value": "12.1 ± 1.35", "unit": "mlU/L"}, {"measurement": "Blood Triglyceride", "setting": "[4]; [9]", "value": "1.47 ± 0.14", "unit": "mmol/L"}, {"measurement": "FBG (fasting blood glucose)", "setting": "[4]; [9]", "value": "8.0 ± 0.45", "unit": "mmol/L"}, {"measurement": "Blood Pressure", "setting": "[4]; Before BBR treatment", "value": "156/86"}, {"measurement": "Blood Cholesterol", "setting": "[4]; Before BBR treatment", "value": "6.1 ± 0.11", "unit": "mmol/L"}, {"measurement": "Blood Insulin", "setting": "[4]; Before BBR treatment", "value": "17 ± 2.15", "unit": "mlU/L"}, {"measurement": "Blood Triglyceride", "setting": "[4]; Before BBR treatment", "value": "2.0 ± 0.22", "unit": "mmol/L"}, {"measurement": "FBG (fasting blood glucose)", "setting": "[4]; Before BBR treatment", "value": "10.7 ± 0.56", "unit": "mmol/L"}, {"measurement": "elevation of Luc mRNA level", "setting": "[5]", "value": 2.5, "unit": "fold"}]}
